This is an account of results in patent publication US20230132526A1 (Institute of Materia Medica, Chinese Academy of Medical …, priority 2020, published 2023).

Structures are written as SMILES.

One assay concerns phosphorylated Akt. The assay is described as follows: Level of phosphorylated Akt by western blotting in primary mouse hepatocytes treated with EphB4 inhibitor. The note with it: LCA 10 μM and 20 μM overnight, 10 nM insulin 20 min before collection, western blotting (FIG. 2C). The class given is cell-based. As for the experimental part:
After the liver tissue was fully digested, it was suspended with DMEM medium, flew through a cell sieve with a diameter of 70 μm, and was centrifugated, thereby the primary hepatocytes were obtained. The cells were resuspended in complete culture medium and dispersed into a petri dish or plate. After the cells were attached, they were treated with LCA (10 μM and 20 μM) overnight.
(In general: Immunoblotting shows a protein as a band on a membrane.)

The subject of another assay is flag-InsR. Briefly: Protein level of flag-InsR by Western blotting in HEK293T cells co-expressing insulin receptor and EphB4, treated with degradation pathway inhibitors. The format is cell-based. The note with it: HEK293T cells co-expressing flag-InsR and EphB4-HA; ammonium chloride 5 mM, chloroquine 10 μM, 8 h; Western blotting (FIG. 2B). As to the method:
GFP was co-transfected as a reference for foreign proteins. The cells were treated with proteasome degradation pathway inhibitor MG132 (10 μM), lysosome degradation pathway inhibitor ammonium chloride (5 mM) and chloroquine (10 μM) for 8 h.

In the case of `C[C@H](CCC(=O)O)[C@H]1CC[C@H]2[C@@H]3CC[C@@H]4C[C@H](O)CC[C@]4(C)[C@H]3CC[C@]12C` [LCA, 3α-hydroxy-5β-cholanoic acid], in the assay on phosphorylated Akt, the “level of phosphorylated Akt” value is reported as “increase the level of phosphorylated Akt”. `Cl.N` [ammonium chloride, Ammonium chloride]: in the assay with flag-InsR, the “protein level of flag-InsR (effect on EphB4-promoted insulin receptor degradation)” value is “partially rescue the promoting effect of EphB4 on insulin receptor degradation to some extent”. Regarding `CCN(CC)CCCC(C)Nc1ccnc2cc(Cl)ccc12` (stereo not drawn) [chloroquine], in the assay with flag-InsR, the “protein level of flag-InsR (effect on EphB4-promoted insulin receptor degradation)” value is on record as “partially rescue the promoting effect of EphB4 on insulin receptor degradation to some extent”.
